Results reported in patent US7531545B2, “2-amino-3,4-dihydro-pyrido[3,4-d]pyrimidine derivatives useful as inhibitors of β-secretase (BACE)” (Janssen Pharmaceutica, N.V., priority 2005, dated 2009).
“And” between values parts separate entries of the source, which are not always exact repeats. Equal entries are not always repeated. Structures can show the parent of a compound that is named as a salt.

Legend:
[1] = molecular target: human BACE-1 (Homo sapiens, UniProt P56817); experiment: CEREP BACE Inhibition Assay; assay type: biochemical; settings: recombinant enzyme
Sequence of human BACE-1 (P56817 46-501): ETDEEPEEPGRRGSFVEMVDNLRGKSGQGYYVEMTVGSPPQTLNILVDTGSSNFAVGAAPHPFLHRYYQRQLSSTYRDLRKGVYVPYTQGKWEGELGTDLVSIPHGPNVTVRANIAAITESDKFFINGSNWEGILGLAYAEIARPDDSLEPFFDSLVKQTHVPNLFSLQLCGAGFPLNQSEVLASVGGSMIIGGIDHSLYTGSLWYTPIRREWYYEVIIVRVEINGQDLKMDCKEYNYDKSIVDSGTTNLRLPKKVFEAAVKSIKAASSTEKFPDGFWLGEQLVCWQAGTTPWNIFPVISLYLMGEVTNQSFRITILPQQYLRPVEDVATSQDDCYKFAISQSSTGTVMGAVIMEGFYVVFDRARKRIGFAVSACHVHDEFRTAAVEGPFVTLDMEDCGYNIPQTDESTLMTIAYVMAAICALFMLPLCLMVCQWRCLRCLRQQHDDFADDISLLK
Summary of the method: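 Recombinant human BACE-1 (0.25 μg) was assayed in 0.09 M sodium acetate pH 4.5, with activity followed fluorimetrically as formation of Mca-S-E-V-N-L[…] from peptide substrate. Compound autofluorescence was checked at the detection wavelengths. Basal signal was taken from wells without substrate.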

[2] = molecular target: T1, β-secretase (BACE) (Homo sapiens, UniProt P56817); experiment: BACE FS1 Assay (% Inhibition and Ki); assay type: biochemical; settings: FS1 substrate; for inhibition at 0.3 µM: 0.3 μM test compound, read-out: % Inhibition (FS) @ 0.3 μM; for inhibition at 1 µM: 1 μM test compound, read-out: % Inhibition (FS) @ 1 μM; for inhibition at 3 µM: 3 μM test compound, read-out: % Inhibition (FS) @ 3 μM
T1 construct: purchased Panvera
T1 sequence (P56817 46-501): as above
Protocol: BACE FS1 Assay (% Inhibition and Ki)
The following reagents were used in this assay: sodium acetate, PEG8000 (Sigma), DMSO, HEPES, FS1 substrate [R(AedensE)[…]-(DabcylK)R], β-secretase (BACE) (Panvera), and 96-well plate (HE microplate, Molecular Devices).
The following assay buffers were prepared and used in this assay: (1) enzyme assay buffer (0.05 M sodium acetate, pH5, 0.1% PEG8000 (w/v)), (2) substrate assay buffer (0.05 M sodium acetate, pH5), and (3) compound vehicle (30% DMSO in 50 mM HEPES, pH 7.4).
The FS1-substrate stock solution was prepared in DMSO as a 10 mg/mL solution. The FS1-substrate working solution was prepared by diluting the 10 mg/mL stock solution with substrate assay buffer to a final concentration of 300 μg/mL. The β-secretase (BACE) working solution was prepared by diluting a 0.83 mg/mL BACE stock solution with enzyme assay buffer to a final concentration of 4 μg/mL.
Test compounds were dissolved in DMSO to 10 mM. Compounds were further diluted in vehicle to various concentrations in the range of 405 μM to 4.05 μM (13.5× final compound concentration in screening plate).
The screening procedure for this assay was as follows: 15 μL of BACE working solution was pipetted into each well of a 96-well plate. To each well was then pipetted 2 μL of test compound at the selected concentration. Test compound and BACE were then mixed with a pipettor and incubated for 20 min at room temperature. To each well was then added 10 μL of the FS1 substrate working solution. The plates were then incubated for 1 hour at room temperature. The fluorescence for each well was then measured on an LJL analyst (Ex 360 nm/Em 530 nm).
The procedure for the blank was as follows. 15 μL of assay buffer was pipetted into each well to be used as a blank control. To each well was then added 2 μL of vehicle and […] of FS1-substrate working solution. The plates were then incubated for 1 hour at room temperature. The fluorescence was measured on an LJL analyst (Ex 360 nm/Em 530 nm).
The procedure for the positive control was as follows: 15 μL of BACE working solution was pipetted into each well to be used as a positive control. To each well was then pipetted 2 μL of vehicle. Vehicle and BACE were then mixed with a pipettor and incubated for 20 min at room temperature. To each well was then added 10 μL of the FS1 substrate working solution. The plates were then incubated for 1 hour at room temperature. The fluorescence (F1) was then measured on an LJL analyst (Ex 360 nm/Em 530 nm).
For test compounds, % inhibition was determined at each concentration as follows:
% Inhibition values of less than 30% were indistinguishable from control are listed as ≦30% in Table 18, below.
For test compounds, measured at multiple concentrations, the measured T0 and T60 values were used to calculate an IC50 value using Graphpad Software (or PIR). Ki inhibition was determined as follows: For each compound concentration and positive control, rate of cleavage of substrate (Vi, where i=compound concentration in μM) was determined as Δ Fluorescence/Δ time (min). Cleavage rates (Vi) were plotted as a function of inhibitor concentration in μM [I]. […]

[3] = 0.3 μM, percent inhibition of the control activity

% Inhibition @ 0.3 μM [1, 3] | inhibition at 0.3 µM [1, 3] | IC50 ([1]; read-out: IC50) | inhibition at 0.3 µM [2] | inhibition at 1 µM [2] | inhibition at 3 µM [2] | Ki [2] | Compound
95% and 100% | 91% | 140 nM and 150 nM | 136% | 136% | 134% | 10 nM | NC1=Nc2cnc(Oc3ccccc3)cc2CN1[C@@H](CCC(=O)N(CCO)C1CCCCC1)C1CCCCC1 [Compound 7, 4-(2-Amino-6-phenoxy-4H-pyrido[3,4-d]pyrimidin-3-yl)-4S,N-dicyclohexyl-N-(2-hydroxy-ethyl)-butyramide]
 |  |  | 107% | 118% | 118% | 9 nM | CC(C)[C@H](CCC(=O)N(C)[C@@H](COCc1ccccc1)C(=O)O)N1Cc2cc(Oc3ccccc3)ncc2N=C1N [Compound 52, 2-{[4-(2-Amino-6-phenoxy-4H-pyrido[3,4-d]pyrimidin-3-yl)-5-methyl-(S)-hexanoyl]-methyl-amino}-3-(S)-benzyloxy-propionic acid trifluoroacetate salt]
